Legend:
[1] = biological target: T1, Hypoxanthine-guanine phosphoribosyltransferase (Homo sapiens, UniProt P00492); test: Inhibition of human HGPRT using xanthine/PRPP assessed as xanthine/guanine conversion to […]guanosine-5'-monophosphate by spectrophotometry in presence of PRPP
T1 sequence (P00492 whole entry): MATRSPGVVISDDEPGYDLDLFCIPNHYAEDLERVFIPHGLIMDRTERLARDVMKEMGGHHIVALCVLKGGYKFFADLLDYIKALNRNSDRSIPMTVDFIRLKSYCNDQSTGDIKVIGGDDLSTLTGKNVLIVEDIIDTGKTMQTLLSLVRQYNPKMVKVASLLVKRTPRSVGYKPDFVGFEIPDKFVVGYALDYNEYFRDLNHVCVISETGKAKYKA

[2] = Inhibition of Plasmodium falciparum HGXPRT assessed as xanthine/guanine conversion to xanthosine-5'-monophosphate/guanosine-5'-monophosphate by spectrophotometry in presence of PRPP

Structure (SMILES) | Ki [1] | Ki [2]
O=c1[nH]cnc2c(CNC(CO)(CO)COP(=O)(O)O)c[nH]c12 | > 10 µM | 15.3 µM
O=c1[nH]cnc2c(CN[C@H](CO)COP(=O)(O)O)c[nH]c12 | > 10 µM | 0.0024 µM
Nc1nc2c(CN[C@H](CO)COP(=O)(O)O)c[nH]c2c(=O)[nH]1 | > 10 µM | 0.0143 µM
Nc1nc2c(CN[C@@H](CO)COP(=O)(O)O)c[nH]c2c(=O)[nH]1 | > 10 µM | 0.65 µM
O=c1[nH]cnc2c(CN[C@H](CO)[C@H](O)COP(=O)(O)O)c[nH]c12 | > 10 µM | 0.98 µM
O=c1[nH]cnc2c(CNCCCCP(=O)(O)O)c[nH]c12 | > 10 µM | 0.49 µM
O=c1[nH]cnc2c(CNCCCCCP(=O)(O)O)c[nH]c12 | > 10 µM | 8.6 µM
O=c1[nH]cnc2c(CNCCCP(=O)(O)O)n[nH]c12 | > 10 µM | 0.0276 µM
O=c1[nH]cnc2c(CCNCCP(=O)(O)O)c[nH]c12 | > 10 µM | 0.62 µM
O=c1[nH]cnc2c(CCNCCCP(=O)(O)O)c[nH]c12 | 11.3 µM | > 20 µM
O=c1[nH]cnc2c(CN[C@H](CO)CCP(=O)(O)O)c[nH]c12 |  | 0.00065 µM
O=c1[nH]cnc2c(CN[C@@H](CO)CCP(=O)(O)O)c[nH]c12 |  | 0.0234 µM
O=c1[nH]cnc2c(CN[C@H](CO)CC(F)(F)P(=O)(O)O)c[nH]c12 | > 10 µM | 0.087 µM
Nc1nc2c(CN[C@H](CO)CC(F)(F)P(=O)(O)O)c[nH]c2c(=O)[nH]1 | > 10 µM | 0.1 µM
O=c1[nH]cnc2c(CNCCOP(=O)(O)O)c[nH]c12 | > 10 µM | 14.4 µM
O=c1[nH]cnc2c(CNCP(=O)(O)O)c[nH]c12 | > 10 µM | > 20 µM
O=c1[nH]cnc2c(CNCCP(=O)(O)O)c[nH]c12 | > 10 µM | 1.9 µM
O=c1[nH]cnc2c(CNCCCP(=O)(O)O)c[nH]c12 | 4.9 µM | 0.0106 µM
O=c1[nH]cnc2c(CN[C@H](CO)CC(F)P(=O)(O)O)c[nH]c12 (mixture of isomers) |  | 0.0012 µM
O=c1[nH]cnc2c(CNCC(O)CP(=O)(O)O)c[nH]c12 (racemic) | > 10 µM | 0.0091 µM
O=c1[nH]cnc2c(CNCC(CO)CP(=O)(O)O)c[nH]c12 (racemic) | > 10 µM | 0.49 µM
O=c1[nH]cnc2c(CNC(CO)COP(=O)(O)O)c[nH]c12 (racemic) | > 10 µM | 0.019 µM
O=c1[nH]c(Cl)nc2c(CNC(CO)COP(=O)(O)O)c[nH]c12 (racemic) | > 10 µM | 9.4 µM
